Results published in PubChem BioAssay AID248 (DTP/NCI, 2004).
Values joined by “and” are separate entries in the source; they are usually repeats but may differ in a detail not shown here. Equal entries are not always repeated. Inconclusive results and toxic doses are left out. No stated cut-off is given here; in the data, active means T/C of 150% or more; inactive means T/C below 125%.

Test system: L1210 leukemia ip in BDF1 mice, survival T/C
Assay: NCI In Vivo Anticancer Drug Screen. Data for tumor model L1210 Leukemia (intraperitoneal) in B6D2F1 (BDF1) mice
Conditions: endpoint: mean survival time, higher = longer survival
Method in brief: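 Each compound was tested against a transplantable tumor grown in mice. The endpoint was survival, with treated animals benchmarked against vehicle controls as a simple ratio.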

Measured: T/C

Nc1ccc(OC(=O)Oc2ccc(N)cc2)cc1
inactive: dose: 5.0 mg/kg/injection, schedule: Q01DX Z (iv), vehicle: saline 101 % of control | dose: 6.25 mg/kg/injection, schedule: Q#A X Z (oral), vehicle: saline 106 % of control | dose: 10.0 mg/kg/injection, schedule: Q01DX Z (iv), vehicle: saline 101 % of control | dose: 12.5 mg/kg/injection, schedule: Q01DX Z (oral), vehicle: saline 104 % of control | dose: 12.5 mg/kg/injection, schedule: Q#A X Z (oral), vehicle: saline 108 % of control | dose: 16.0 mg/kg/injection, schedule: Q07DX003 (oral), vehicle: saline 103 % of control | dose: 20.0 mg/kg/injection, schedule: Q01DX Z (iv), vehicle: saline 100 % of control | dose: 25.0 mg/kg/injection, schedule: Q01DX Z (oral), vehicle: saline 104 % of control | dose: 25.0 mg/kg/injection, schedule: Q#A X Z (oral), vehicle: saline 112 % of control | dose: 31.0 mg/kg/injection, schedule: Q07DX003 (oral), vehicle: saline 98 % of control | dose: 37.0 mg/kg/injection, schedule: Q01DX Z (ip), vehicle: carboxymethylcellulose (CMC) 100 % of control | dose: 37.5 mg/kg/injection, schedule: Q01DX009 (ip), vehicle: other 101 % of control | dose: 37.5 mg/kg/injection, schedule: Q01DX017 (ip), vehicle: other 101 % of control | dose: 37.5 mg/kg/injection, schedule: Q#A X018 (ip), vehicle: other 97 % of control | dose: 38.0 mg/kg/injection, schedule: Q01DX Z (ip), vehicle: carboxymethylcellulose (CMC) 98 % of control | dose: 40.0 mg/kg/injection, schedule: Q01DX Z (iv), vehicle: saline 100 % of control | dose: 40.0 mg/kg/injection, schedule: Q#A X Z (ip), vehicle: saline 111 % of control | dose: 50.0 mg/kg/injection, schedule: Q01DX005 (ip), vehicle: saline 101 % of control | dose: 50.0 mg/kg/injection, schedule: Q01DX006 (iv), vehicle: saline 110 % of control | dose: 50.0 mg/kg/injection, schedule: Q01DX009 (ip), vehicle: saline 104 % of control | dose: 50.0 mg/kg/injection, schedule: Q01DX015 (ip), vehicle: other 115 % of control | dose: 50.0 mg/kg/injection, schedule: Q01DX Z (im), vehicle: saline 104 % of control | dose: 50.0 mg/kg/injection, schedule: Q01DX Z (oral), vehicle: saline 112 % of control | dose: 50.0 mg/kg/injection, schedule: Q01DX Z (sc), vehicle: saline 112 % of control | dose: 50.0 mg/kg/injection, schedule: Q## X003 (ip), vehicle: saline 102 % of control | dose: 50.0 mg/kg/injection, schedule: Q## X024 (ip), vehicle: saline 101 % of control | dose: 53.0 mg/kg/injection, schedule: Q01DX Z (ip), vehicle: carboxymethylcellulose (CMC) 89 % of control and 113 % of control | dose: 53.0 mg/kg/injection, schedule: Q01DX Z (ip), vehicle: saline 102 % of control | dose: 63.0 mg/kg/injection, schedule: Q07DX003 (oral), vehicle: saline 106 % of control | dose: 74.0 mg/kg/injection, schedule: Q01DX Z (ip), vehicle: carboxymethylcellulose (CMC) 113 % of control | dose: 75.0 mg/kg/injection, schedule: Q01DX009 (ip), vehicle: other 104 % of control | dose: 75.0 mg/kg/injection, schedule: Q01DX017 (ip), vehicle: other 104 % of control | dose: 75.0 mg/kg/injection, schedule: Q01DX Z (ip), vehicle: carboxymethylcellulose (CMC) 102 % of control | dose: 75.0 mg/kg/injection, schedule: Q#A X018 (ip), vehicle: other 118 % of control | dose: 80.0 mg/kg/injection, schedule: Q01DX012 (oral), vehicle: saline 94 % of control | dose: 80.0 mg/kg/injection, schedule: Q01DX Z (ip), vehicle: carboxymethylcellulose (CMC) 93 % of control | dose: 80.0 mg/kg/injection, schedule: Q01DX Z (ip), vehicle: saline 113 % of control | dose: 100.0 mg/kg/injection, schedule: Q01DX001 (ip), vehicle: saline 98 % of control | dose: 100.0 mg/kg/injection, schedule: Q01DX005 (ip), vehicle: saline 92 % of control | dose: 100.0 mg/kg/injection, schedule: Q01DX005 (oral), vehicle: saline 116 % of control | dose: 100.0 mg/kg/injection, schedule: Q01DX006 (iv), vehicle: saline 114 % of control | dose: 100.0 mg/kg/injection, schedule: Q01DX009 (oral), vehicle: saline 116 % of control | dose: 100.0 mg/kg/injection, schedule: Q01DX015 (ip), vehicle: clinical formulation 118 % of control | dose: 100.0 mg/kg/injection, schedule: Q## X003 (ip), vehicle: saline 106 % of control | dose: 100.0 mg/kg/injection, schedule: Q## X003 (oral), vehicle: saline 101 % of control | dose: 100.0 mg/kg/injection, schedule: Q## X008 (ip), vehicle: saline 101 % of control | dose: 120.0 mg/kg/injection, schedule: Q01DX012 (oral), vehicle: saline 105 % of control | dose: 120.0 mg/kg/injection, schedule: Q01DX Z (ip), vehicle: carboxymethylcellulose (CMC) 97 % of control | dose: 120.0 mg/kg/injection, schedule: Q01DX Z (ip), vehicle: saline 108 % of control and 117 % of control | dose: 125.0 mg/kg/injection, schedule: Q07DX003 (oral), vehicle: saline 106 % of control | dose: 135.0 mg/kg/injection, schedule: Q#A X Z (ip), vehicle: saline 102 % of control | dose: 149.0 mg/kg/injection, schedule: Q01DX Z (ip), vehicle: carboxymethylcellulose (CMC) 105 % of control | dose: 150.0 mg/kg/injection, schedule: Q01DX001 (ip), vehicle: other 109 % of control | dose: 150.0 mg/kg/injection, schedule: Q01DX Z (ip), vehicle: carboxymethylcellulose (CMC) 113 % of control | dose: 180.0 mg/kg/injection, schedule: Q01DX Z (ip), vehicle: carboxymethylcellulose (CMC) 98 % of control | dose: 180.0 mg/kg/injection, schedule: Q01DX Z (ip), vehicle: saline 105 % of control | dose: 180.0 mg/kg/injection, schedule: Q01DX Z (oral), vehicle: saline 110 % of control | dose: 200.0 mg/kg/injection, schedule: Q01DX001 (ip), vehicle: saline 110 % of control | dose: 200.0 mg/kg/injection, schedule: Q01DX005 (oral), vehicle: saline 110 % of control | dose: 200.0 mg/kg/injection, schedule: Q01DX008 (oral), vehicle: saline 93 % of control | dose: 200.0 mg/kg/injection, schedule: Q01DX015 (ip), vehicle: clinical formulation 108 % of control | dose: 200.0 mg/kg/injection, schedule: Q01DX015 (ip), vehicle: other 100 % of control | dose: 200.0 mg/kg/injection, schedule: Q## X003 (ip), vehicle: saline 98 % of control | dose: 200.0 mg/kg/injection, schedule: Q## X003 (oral), vehicle: saline 106 % of control | dose: 200.0 mg/kg/injection, schedule: Q## X008 (ip), vehicle: saline 104 % of control | dose: 200.0 mg/kg/injection, schedule: Q## X024 (ip), vehicle: saline 97 % of control | dose: 240.0 mg/kg/injection, schedule: Q03DX Z (ip), vehicle: saline 110 % of control | dose: 250.0 mg/kg/injection, schedule: Q01DX001 (oral), vehicle: saline 115 % of control | dose: 250.0 mg/kg/injection, schedule: Q03DX006 (oral), vehicle: saline 108 % of control | dose: 250.0 mg/kg/injection, schedule: Q07DX003 (oral), vehicle: saline 113 % of control | dose: 267.0 mg/kg/injection, schedule: Q## X024 (ip), vehicle: saline 106 % of control | dose: 267.0 mg/kg/injection, schedule: Q## X024 (oral), vehicle: saline 110 % of control | dose: 270.0 mg/kg/injection, schedule: Q01DX Z (ip), vehicle: carboxymethylcellulose (CMC) 101 % of control | dose: 270.0 mg/kg/injection, schedule: Q01DX Z (ip), vehicle: other 113 % of control | dose: 270.0 mg/kg/injection, schedule: Q01DX Z (ip), vehicle: saline 91 % of control | dose: 300.0 mg/kg/injection, schedule: Q01DX001 (ip), vehicle: other 103 % of control | dose: 360.0 mg/kg/injection, schedule: Q03DX Z (ip), vehicle: saline 110 % of control | dose: 400.0 mg/kg/injection, schedule: Q01DX001 (ip), vehicle: saline 97 % of control | dose: 400.0 mg/kg/injection, schedule: Q01DX006 (iv), vehicle: saline 118 % of control | dose: 400.0 mg/kg/injection, schedule: Q01DX008 (oral), vehicle: saline 92 % of control | dose: 400.0 mg/kg/injection, schedule: Q## X003 (ip), vehicle: saline 111 % of control | dose: 400.0 mg/kg/injection, schedule: Q## X003 (oral), vehicle: saline 105 % of control | dose: 400.0 mg/kg/injection, schedule: Q## X008 (ip), vehicle: saline 101 % of control | dose: 400.0 mg/kg/injection, schedule: Q## X024 (oral), vehicle: saline 102 % of control and 105 % of control | dose: 405.0 mg/kg/injection, schedule: Q01DX Z (ip), vehicle: other 116 % of control | dose: 500.0 mg/kg/injection, schedule: Q01DX001 (oral), vehicle: saline 110 % of control | dose: 500.0 mg/kg/injection, schedule: Q03DX006 (oral), vehicle: saline 115 % of control | dose: 500.0 mg/kg/injection, schedule: Q07DX003 (oral), vehicle: saline 111 % of control | dose: 540.0 mg/kg/injection, schedule: Q03DX Z (ip), vehicle: saline 115 % of control | dose: 560.0 mg/kg/injection, schedule: Q07DX Z (ip), vehicle: saline 110 % of control | dose: 600.0 mg/kg/injection, schedule: Q## X024 (oral), vehicle: saline 115 % of control | dose: 720.0 mg/kg/injection, schedule: Q01DX Z (oral), vehicle: saline 106 % of control | dose: 800.0 mg/kg/injection, schedule: Q01DX008 (oral), vehicle: saline 116 % of control | dose: 800.0 mg/kg/injection, schedule: Q## X003 (oral), vehicle: saline 102 % of control | dose: 1000.0 mg/kg/injection, schedule: Q01DX001 (oral), vehicle: saline 110 % of control | dose: 1000.0 mg/kg/injection, schedule: Q03DX006 (oral), vehicle: saline 114 % of control | dose: 2000.0 mg/kg/injection, schedule: Q01DX001 (oral), vehicle: saline 92 % of control
